From patent US20130252890A1, “6,7-DIHYDRO-5H-BENZO[7]ANNULENE DERIVATIVES, PROCESS FOR PREPARATION THEREOF, PHARMACEUTICAL PREPARATIONS COMPRISING THEM, AND THE USE THEREOF FOR PRODUCTION OF MEDICAMENTS” (BAYER INTELLECTUAL PROPERTY GMBH, priority 2010, published 2013) come the findings set out here.

The structures appear in SMILES notation.

The assay has as its target T1, oestrogen receptor (ER) (Homo sapiens, UniProt P03372).
T1 construct: These MVLN cells express, along with the functional oestrogen receptor (ER), a reporter construct; endogenous in cells; host or cells: MVLN cells (MCF7 derivative carrying a luciferase reporter construct)
T1 sequence (P03372 1-595): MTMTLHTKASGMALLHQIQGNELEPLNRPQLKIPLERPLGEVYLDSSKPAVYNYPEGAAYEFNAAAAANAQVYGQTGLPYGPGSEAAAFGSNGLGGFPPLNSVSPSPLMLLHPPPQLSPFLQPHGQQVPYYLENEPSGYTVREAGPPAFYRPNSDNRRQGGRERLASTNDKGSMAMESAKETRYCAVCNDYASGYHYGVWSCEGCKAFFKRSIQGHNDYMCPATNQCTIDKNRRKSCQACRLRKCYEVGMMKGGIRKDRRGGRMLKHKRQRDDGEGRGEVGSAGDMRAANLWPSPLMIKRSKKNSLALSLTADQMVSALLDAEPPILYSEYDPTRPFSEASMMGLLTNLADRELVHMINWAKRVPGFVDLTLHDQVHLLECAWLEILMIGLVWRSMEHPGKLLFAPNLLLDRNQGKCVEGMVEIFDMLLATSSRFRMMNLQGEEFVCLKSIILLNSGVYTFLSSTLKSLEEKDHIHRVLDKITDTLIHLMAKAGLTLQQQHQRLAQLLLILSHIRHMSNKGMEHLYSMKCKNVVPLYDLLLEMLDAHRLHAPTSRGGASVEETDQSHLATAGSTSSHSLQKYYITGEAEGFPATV
Nature of the assay: Anti-oestrogenic action in MVLN cells (inhibition of estradiol-induced luciferase). In kind it is cell-based. As to conditions: inhibition of estradiol-induced luciferase signal, value of Ex. 44 is a mean value, read-out: Antioestrogenic action in vitro: MVLN transactivation antagonism IC50. In short, it runs like this:
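MVLN cells, MCF7 breast cancer derivatives carrying functional ER plus an ER-activated luciferase reporter, were treated with compounds in the presence of estradiol. Anti-oestrogenic activity taken as inhibition of the estradiol-induced luciferase signal.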
By IC50 is commonly meant the concentration needed to halve the response being measured. Regarding `CN(CCCCCC1=C(c2ccc(F)cc2)CCCc2cc(O)ccc21)CCCS(=O)(=O)CCCC(F)(F)C(F)(F)F` [Example 127], the half-maximal inhibitory concentration (IC50) is 69 nM. To `CN(CCCCCCC1=C(c2ccc(F)cc2F)CCCc2cc(O)ccc21)CCCS(=O)(=O)CCCC(F)(F)C(F)(F)F` [Example 128, 8-(2,4-Difluorophenyl)-9-[6-(methyl{3-[(4,4,5,5,5-pentafluoropentyl)sulphonyl]propyl}amino)hexyl]-6,7-dihydro-5H-benzo[7]annulen-3-ol] belongs 6 nM; to `CN(CCCCCCC1=C(c2ccc(F)cc2F)CCCc2cc(O)ccc21)CCCS(=O)(=O)CCCCC(F)(F)F` [Example 129, 8-(2,4-Difluorophenyl)-9-[6-(methyl{3-[(5,5,5-trifluoropentyl)sulphonyl]propyl}amino)hexyl]-6,7-dihydro-5H-benzo[7]annulen-3-ol], 5 nM.

Turning to `CN(CCCCCCC1=C(c2ccc(F)cc2F)CCCc2cc(O)ccc21)CCCS(=O)(=O)CCC(F)(F)F` [Example 130, 8-(2,4-Difluorophenyl)-9-[6-(methyl{3-[(3,3,3-trifluoropropyl)sulphonyl]propyl}amino)hexyl]-6,7-dihydro-5H-benzo[7]annulen-3-ol], the half-maximal inhibitory concentration (IC50) was found to be 16 nM. Turning to `CN(CCCCCCC1=C(c2ccc(F)cc2F)CCCc2cc(O)ccc21)CCCCS(=O)(=O)CCC(F)(F)F` [Example 131, 8-(2,4-Difluorophenyl)-9-[6-(methyl{4-[(3,3,3-trifluoropropyl)sulphonyl]butyl}amino)hexyl]-6,7-dihydro-5H-benzo[7]annulen-3-ol], the IC50 came out at 3 nM. The result for `CN(CCCCCCC1=C(c2ccc(F)cc2F)CCCc2cc(O)ccc21)CCCCS(=O)(=O)CCCC(F)(F)F` [Example 132, 8-(2,4-Difluorophenyl)-9-[6-(methyl{4-[(4,4,4-trifluorobutyl)sulphonyl]butyl}amino)hexyl]-6,7-dihydro-5H-benzo[7]annulen-3-ol] reads 4 nM; that for `CN(CCCCCCC1=C(c2ccc(F)cc2F)CCCc2cc(O)ccc21)CCCCCS(=O)(=O)CCC(F)(F)F` [Example 133, 8-(2,4-Difluorophenyl)-9-[6-(methyl{5-[(3,3,3-trifluoropropyl)sulphonyl]pentyl}amino)hexyl]-6,7-dihydro-5H-benzo[7]annulen-3-ol], 7 nM. With `CN(CCCCCCC1=C(c2ccc(F)cc2F)CCCc2cc(O)ccc21)CCCS(=O)(=O)CCCC(F)(F)F` [Example 134, 8-(2,4-Difluorophenyl)-9-[6-(methyl{3-[(4,4,4-trifluorobutyl)sulphonyl]propyl}amino)hexyl]-6,7-dihydro-5H-benzo[7]annulen-3-ol], the IC50 was 5 nM. For the molecule `CN(CCCCCCC1=C(c2ccc(F)cc2F)CCCc2cc(O)ccc21)CCCS(=O)(=O)CCCCCC(F)(F)F` [Example 135, 8-(2,4-Difluorophenyl)-9-[6-(methyl{3-[(6,6,6-trifluorohexyl)sulphonyl]propyl}amino)hexyl]-6,7-dihydro-5H-benzo[7]annulen-3-ol], the IC50 worked out at 5 nM. The result for `[2H]C([2H])([2H])N(CCCCCCC1=C(c2ccc(F)cc2F)CCCc2cc(O)ccc21)CCCS(=O)(=O)CCCCC(F)(F)F` [Example 136, 8-(2,4-Difluorophenyl)-9-{6-[(^2H3)methyl{3-[(5,5,5-trifluoropentyl)sulphonyl]propyl}amino]hexyl}-6,7-dihydro-5H-benzo[7]annulen-3-ol] reads 9 nM; that for `[2H]C([2H])([2H])N(CCCCCCC1=C(c2cc(F)ccc2F)CCCc2cc(O)ccc21)CCCS(=O)(=O)CCCCC(F)(F)F` [Example 137, 8-(2,5-Difluorophenyl)-9-{6-[(^2H3)methyl{3-[(5,5,5-trifluoropentyl)sulphonyl]propyl}amino]hexyl}-6,7-dihydro-5H-benzo[7]annulen-3-ol], 6 nM.
